According to US20030088061A1, “Materials and methods to modulate ligand binding/enzymatic activity of alpha/beta proteins containing an allosteric regulatory site” (priority 2000, published 2003):
pIC50: −log10 of the molar value. Values after ≈ are worked out from the molar mass of the structure shown. Values joined by “and” are separate entries in the source; they are usually repeats but may differ in a detail not shown here. Equal entries are not always repeated. Where two headings read alike, the source gives them in different places.

Tests used:
Rac1 = target: T1, Rac1 (Homo sapiens, UniProt P63000); assay: Tiam1-catalyzed guanine nucleotide exchange of Rac1; assay type: biochemical; settings: in the presence of Tiam1; read-out: IC50, Rac1 guanine nucleotide exchange reaction
T1 construct: GST (cleaved yes); made in house; host or cells: E. coli
Procedure: Rac1 was expressed in E. coli as a GST fusion protein using the vector pGEX2T in accordance with previously described methods [Self and Hall, Meth. Enzymol. 256:3 (1995)]. Purified thrombin-cleaved Rac1 protein was used in the assay.
The Tiam1 DH-PH domain expressed as a fusion protein containing a carboxy terminal 6XHis tag using the plasmid pET28a described by Rossman and Campbell, Meth. Enzymol. 325:25 (2000).
The Tiam1-catalyzed exchange of GDP for GTP of Rac1 was carried out essentially according to the procedure described by Crompton et al., J. Biol.Chem. 275(33):25751 (2000). GDP-bound Rac1 was incubated with [α^32P]-labeled GTP, in the presence of Tiam1 and nucleotide exchange was monitored by following the increase in radioactivity bound to Rac1. Free radioactivity was removed by placing the reaction mixture in the well of a 96-well plate and filtering out the fraction of [α^32P]GTP that is not bound to Rac1. During the screen for the nucleotide exchange antagonists, the compounds were used at 10 μM concentration. The compounds analyzed by the screening methods are further described below.
Compounds that inhibit the Rac1 guanine nucleotide exchange reaction by at least 50% of the control were obtained. The IC50 value of several of the compounds were determined for the guanine nucleotide exchange reaction of Rac1, in the presence of Tiam1.

CD11b (Mac-1) = target: T2, CD11b (Mac-1) (Homo sapiens, UniProt P11215); assay: CD11b-mediated neutrophil adhesion to fibrinogen; assay type: cell-based
T2 construct: endogenous in cells; host or cells: neutrophils from fresh human blood
Procedure: The adhesion assay described above for CD18/CD11b-(Mac-1)-mediated adhesion of HL-60 cells to ICAM-1 was carried out with the following modifications. Each well was coated overnight at 4° C. with 50 μl of glycophorin (10 μg/ml), fibrinogen (5 μg/ml) or with anti-CD18 monoclonal antibody (22F12C, 5 μg/ml) and anti-CD11b monoclonal antibody (44AACB, 5 μg/ml) in 50 mM bicarbonate buffer (pH 9.6). Plates were blocked with 1% human serum albumin and no blocking antibody was used. Neutrophils were isolated from fresh heparin whole human blood by density gradient centrifugation and 100 μl of the cells (4×10^6 cells/ml) in adhesion buffer was added to each well. Plates were incubated at 37° C. for 10 minutes.

CD11b/CD18 = target: T3, CD11b/CD18 (Homo sapiens, UniProt P11215); assay: Adhesion of JY/CD11b cells to immobilized iC3b; assay type: cell-based; settings: dose-dependent; relative to control DMSO treatment
T3 construct: expressed in transfected cells; host or cells: JY (human B lymphoblastoid) cells
Procedure: B. Adhesion Assay of JY/CD11b Cells to Immobilized iC3b
Briefly, each well of a 96-well plate was coated overnight at 4° C. with 50 μl glycophorin (10 μg/ml), iC3b (5 μg/ml) or with anti-CD18 monoclonal antibody (22F12C, 5 μg/ml) and anti-CD11b monoclonal antibody (44AACB, 5 µg/ml) in bicarbonate buffer (pH 9.6). Plates were blocked with human serum albumin in D-PBS for one hr at room temperature. JY cells transfected with CD11b (JY/CD11b cells) (100 μl at 1×10^6 cells/ml) in adhesion buffer were added to each well and incubation was carried out at 37° C. for 30 min. Plates were fixed and analyzed as described above in Example 1. Percentage of cells binding was determined using the equation below. [formula]
Data was normalized using the formula: [formula]

ftsZ [1] = target: T4, ftsZ (Escherichia coli, UniProt P0A9A6); assay: ftsZ GTPase assay; assay type: biochemical
Procedure: An alternative assay that may be more sensitive was also devised. In this assay, 100 μg/ml ftsZ was incubated with 0.5 μM ^32P-γ-GTP. The GTPase activity of ftsZ liberates ^32PO4. By terminating the reaction with 25 mg/ml activated charcoal in 100 mM NaH2PO4 and centrifuging the product, the remaining ^32P-γ-GTP is trapped by the charcoal. Accordingly, the ^32PO4 that remains in the supernatant can be measured, providing a measurement of GTPase inhibition.

ftsZ [2] = target: T4, ftsZ; assay: ftsZ polymerization assay; assay type: biochemical; settings: read-out: IC50, ftsZ polymerization screen
Procedure: A polymerization assay for the identification of ftsZ inhibitors that can be performed in microtiter wells has been devised. The polymerization assay is an adaptation of a tubulin polymerization assay [Bollag et al., Cancer Research 55:2325-2333 (1995)], and involves the reversible polymerization of ftsz in a GTP-dependent fashion.
In the presence of GTP and 10 mM CaCl2, 5 nm ftsZ linear polymers assemble into higher order polymers [Yu et al., EMBO 16:5455-5463 (1997)] that are large enough to be trapped by a 0.2 μm filter. The protein that is retained on the filter can be stained and detected in a colorimetric assay. A reaction consisting of 300 μg/ml of ftsZ polymerized by 100 μM GTP was screened against candidate ftsZ inhibitors at 10 μM.

[3] = system: permeable tolC strain overexpressing ENR; assay: microbe, parasite or virus in culture; assay type: cell-based, E. coli; settings: Escherichia coli, read-out: MIC, ENR-overexpressing strain
Procedure: (§1) A permeable bacteria] strain (AB734 TN10::tolC) was used in the screening method to maximize the ability of the compounds to cross the gram negative cell wall. Assays were conducted in accordance with the NCCLS protocols referenced herein.
(§2) It was of further interest to determine whether those compounds with antimicrobial activity worked in a ENR-dependent fashion. Two strains of the permeable tolC strain were constructed. In the first strain, the ENR protein was overexpressed by placing it under control of its own promoter on a moderate copy number plasmid, and the second strain served as a control including only the plasmid.

[4] = system: permeable tolC strain (plasmid only); assay: microbe, parasite or virus in culture; assay type: cell-based, E. coli; settings: Escherichia coli, read-out: MIC, control strain
Procedure: as §1, §2

[5] = target: ICAM-1/Fc (Homo sapiens (Human)) (UniProt P05362); assay: adhesion of COS-7 transfectants to immobilized ICAM-1/Fc
[6] = target: iC3b (Homo sapiens (Human)) (UniProt P01024); assay: adhesion of COS-7 transfectants to immobilized iC3b
[7] = after SAR efforts based on Cmpd S, read-out: IC50 (inhibition potency), neutrophil adhesion to fibrinogen
[8] = read-out: IC50, neutrophil adhesion to fibrinogen

T4 sequence (P0A9A6 whole entry): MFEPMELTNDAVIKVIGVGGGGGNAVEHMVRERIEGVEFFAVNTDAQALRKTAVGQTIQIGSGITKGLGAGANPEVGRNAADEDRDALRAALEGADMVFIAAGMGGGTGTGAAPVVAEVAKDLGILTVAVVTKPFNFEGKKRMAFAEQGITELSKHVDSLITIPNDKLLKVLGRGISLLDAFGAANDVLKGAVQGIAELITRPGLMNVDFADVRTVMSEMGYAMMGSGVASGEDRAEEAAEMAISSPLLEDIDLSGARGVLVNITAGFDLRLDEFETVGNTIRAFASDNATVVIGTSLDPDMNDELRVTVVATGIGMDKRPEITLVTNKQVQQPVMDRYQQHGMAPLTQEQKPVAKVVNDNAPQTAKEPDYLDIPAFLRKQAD

Question: `CSc1ccc(-c2ccnc(N3CCC(C)CC3)c2)cc1C(C)(F)F` [Cmpd AAA] was tested. Which pIC50 (Rac1) did it give?
Answer: 5.46

Question: `CC(C)Sc1ccc(-c2ccnc(N3CCCC(C)(C)C3)c2)cc1C(F)(F)F` [Cmpd AAB] was tested. Which pIC50 (Rac1) did it give?
Answer: 5.33

Question: `CC(C)Sc1ccc(-c2ccnc(N3CCC(NC(=O)OC(C)(C)C)CC3)c2)cc1C(F)(F)F` [Cmpd AAC] was tested. Which pIC50 (Rac1) did it give?
Answer: 5.30

Question: `CC(CN(C)C)NCc1ccccc1Sc1ccc(C(C)(C)C)cc1` (stereo not drawn) [Cmpd AA] was tested. Which pIC50 (CD11b (Mac-1); [7]) did it give?
Answer: > 6.70

Question: `CN(C)CCCCNCc1ccccc1Sc1c(Cl)cccc1Cl` [Cmpd AC] was tested. Which pIC50 (CD11b (Mac-1); [7]) did it give?
Answer: > 6.70

Question: `CN(CCCNCc1ccccc1Sc1c(Cl)cccc1Cl)c1ccccc1` [Cmpd AY] was tested. Which pIC50 (Rac1) did it give?
Answer: 5.72

Question: With `CN(CCCNCc1ccccc1Sc1cc(Cl)cc(Cl)c1)c1ccccc1` [Cmpd AZ] as the compound, how does the pIC50 (Rac1) read?
Answer: 5.51

Question: How did the “stimulation of CD11b/CD18 binding to iC3b” value (“stimulation” for short) (CD11b/CD18) turn out when `O=[N+]([O-])c1cc(Cl)c(Sc2ccc(Cl)cc2Cl)cc1F` [Cmpd C] was run?
Answer: two times

Question: With `CC(C)c1ccccc1Sc1ccc(/C=C/C(=O)N2CCN(C(=O)OC(C)(C)C)C(CO)C2)cc1[N+](=O)[O-]` (stereo not drawn) [Cmpd F] as the compound, how does the pIC50 (CD11b (Mac-1); [8]) read?
Answer: > 5.00

Question: With `CCCCC(CCCC)N(C(=O)CN1CC(c2ccc3c(c2)OCO3)C(C)C1C(C)(C)CCCC)c1ccc(F)c(C)c1` (stereo not drawn) [Cmpd H] as the compound, how does the “stimulation” value (CD11b/CD18) read?
Answer: two times

Question: With `CCCCC(CCCC)N(C(=O)CN1CC(c2ccc3ccccc3c2)C(C(=O)O)C1c1ccc(OC)cc1)c1ccc(F)c(C)c1` (stereo not drawn) [Cmpd I] as the compound, how does the “stimulation” value (CD11b/CD18) read?
Answer: two times

Question: How did the pIC50 (CD11b (Mac-1); [8]) turn out when `O=C(/C=C/c1ccc(Sc2ccccc2CN2CCOCC2)c(Cl)c1)N1CCOCC1` [Cmpd L] was run?
Answer: > 5.00

Question: `CN(C)CCCCNCc1ccc(Sc2ccc(Cl)cc2Cl)c(Cl)c1` [Cmpd N] was tested. Which pIC50 (CD11b (Mac-1); [8]) did it give?
Answer: > 5.00

Question: How did the pIC50 (CD11b (Mac-1); [8]) turn out when `CN(C)CCCCNCc1ccccc1Sc1ccc(Cl)cc1Cl` [Cmpd O] was run?
Answer: > 5.00

Question: `CN(C)CCN(Cc1ccc(Sc2ccc(Cl)cc2Cl)c(Cl)c1)C(=O)c1ccc(/C=C/C(=O)N2CCOCC2)cc1Cl` [Cmpd P] was tested. Which pIC50 (CD11b (Mac-1); [8]) did it give?
Answer: > 5.00

Question: With `CN(C)CCN(Cc1ccccc1Sc1ccc(Cl)cc1Cl)C(=O)c1ccc(/C=C/C(=O)N2CCOCC2)cc1Cl` [Cmpd Q] as the compound, how does the pIC50 (CD11b (Mac-1); [8]) read?
Answer: > 5.00

Question: With `CN(C)CCNCc1ccc(Sc2ccc(Cl)cc2Cl)c(Cl)c1` [Cmpd R] as the compound, how does the pIC50 (CD11b (Mac-1); [8]) read?
Answer: > 5.00

Question: How did the pIC50 (CD11b (Mac-1); [8]) turn out when `CN(C)CCNCc1ccccc1Sc1ccc(Cl)cc1Cl` [Cmpd S] was run?
Answer: > 5.00 and 6.00

Question: With `COC(=O)N1CCN(C(=O)/C=C/c2ccc(Sc3ccccc3C(C)C)c([N+](=O)[O-])c2)CC1` [Cmpd V] as the compound, how does the pIC50 (CD11b (Mac-1); [8]) read?
Answer: > 5.00

Question: How did the pIC50 (ftsZ [1]) turn out when `Nc1nc2c(ncn2[C@@H]2O[C@H](COP(=O)(O)OP(=O)(O)O)[C@@H](O)[C@H]2O)c(=O)[nH]1` [GDP] was run?
Answer: 5.10

Question: What about the pIC50 (ftsZ [2]) of the same compound?
Answer: 3.60

Question: `Oc1cc(Cl)ccc1Oc1ccc(Cl)cc1Cl` [triclosan] was tested. Which MIC [3] did it give?
Answer: 1 µg/mL (≈ 3.45 µM)

Question: What about the MIC [4] of the same compound?
Answer: 0.031 µg/mL (≈ 0.107 µM)

Question: What does the source list for “CD11b E336A / CD18 (from UniProt P11215) (receptor)”?
Answer: binding, % [5]: 0.7%; binding, % [6]: 4.3%

Question: Which results are given for “CD11b F333A / CD18 (from UniProt P11215) (receptor)”?
Answer: binding, % [5]: 1.1%; binding, % [6]: 4.9%

Question: Which results are given for “CD11b I332A / CD18 (from UniProt P11215) (receptor)”?
Answer: binding, % of wildtype levels (% of wildtype levels) [5]: 123; binding, % [6]: 205%

Question: Which results are given for “CD11b Q327A / CD18 (from UniProt P11215) (receptor)”?
Answer: binding, % of wildtype levels (% of wildtype levels) [5]: 105; binding, % [6]: 140%

Question: Which binding, % of wildtype levels (% of wildtype levels) [5] does the source give for “CD11b V254A / CD18 (from UniProt P11215) (receptor)” here?
Answer: 115

Question: And the binding, % [6]?
Answer: 147%
